Data as given in paper PMC7178883, “1,2,4-Triazole-based anticonvulsant agents with additional ROS scavenging activity are effective in a model of pharmacoresistant epilepsy” (Journal of Enzyme Inhibition and Medicinal Chemistry, 2020).
Values after ≈ are worked out from the molar mass of the structure shown. Where two headings read alike, the source gives them in different places.

What was measured:
DPPH assay = conditions: methanol, 30 min, 517 nm
Method: Free radical scavenging activity of compounds TP-10, TP-315 and TP-427 was evaluated using DPPH assay. Briefly, 25 µl of 0.2 mM of methanolic solution of DPPH ([…]) was mixed with 175 µl of varying concentrations (0.002–4.5 mg/ml) of the studied compounds dissolved in methanol. Reaction mixtures in the 96-well plate were incubated in the dark at room temperature for 30 min. The absorbance was measured at 517 nm against blank (which consists of all reagents without the investigated compounds) using a microplate reader (Epoch, BioTek Instruments, Inc., Winooski, VT, USA). As a reference, the antioxidant activity of vitamin C was evaluated. Each concentration of the compounds was assayed at least six times. The results were expressed as the IC50 (µg/ml) ± SD calculated using the linear regression analysis.

CUPRAC assay = conditions: pH 7.0, 450 nm
Method: Cupric reducing antioxidant capacity (CUPRAC) assay was performed according to the method by Apak et al.[20] with slight modifications. The CUPRAC reagent was prepared by mixing equal volume of CuCl2 (10 mM), neocuproine solution (7.5 mM), and acetate buffer (pH = 7.0). Subsequently, 50 µl of TP-10, TP-315, TP-427 (0.002–0.4 mg/ml) and 150 µl of CUPRAC reagent were pipetted into each well of 96-well plate (Nunc, Roskilde, Denmark). After pipetting, the plate was shaken for 5 min and then incubated for 25 min in the dark at room temperature. The absorbance of the solutions was read at 450 nm using a microplate reader (Epoch, BioTek Instruments, Inc., Winooski, VT, USA). At least six tests were performed for each concentration of the investigated compounds. The results were expressed as the IC50 (µg/ml) ± SD.

U-87 MG cells [1] = test: Cell viability, MTT assay; assay type: cell-based, human; conditions: 10 µg/ml, 24 h
Method: Viability of glioblastoma cells U-87 MG (ATCC HTB-14) exposed to a fixed dose of 10 µg/ml of TP-10, TP-315, and TP-427 was measured using MTT assay. Stock solutions of the investigated compounds in DMSO were prepared in the concentration of 50 mg/ml. The cells were cultured at 37 °C in a 5% CO2 atmosphere using Eagle’s Minimum Essential Medium (EMEM) supplemented with 10% foetal bovine serum (FBS), 100 U/ml of penicillin, and […] of streptomycin. Suspension of U-87 MG cells at a density of 1 × 10^5 cells/ml was placed in 96-well plate (100 µl in each well) and incubated for 24 h. On the day of the experiment, the medium was removed from wells and replaced with medium containing a fixed concentration (10 µg/ml) of the respective 1,2,4-triazole derivative. After 24 h of incubation, 15 µl of MTT solution (5 mg/mL in PBS) was added to each well and the microplates were incubated for the next 3 h. Crystals of formazan formed in the metabolically active cells were solubilised with 10% SDS solution (100 µl) during overnight incubation and then the absorbance of dissolved formazan was measured at λ = 570 nm using a microplate reader (Epoch, BioTek Instruments, Inc., Winooski, VT, USA). The viability of cells treated with TP-10, TP-315, or TP-427 was expressed as the % of the viability of control cells (i.e. cells incubated without respective compounds). The experiments were run in triplicate and repeated three times. Sample observations and image capturing were performed using Olympus CKX53 microscope coupled with XM10 digital camera (Olympus).

U-87 MG cells [2] = test: Mitochondrial membrane potential, JC-1 dye (flow cytometry); assay type: cell-based, human; conditions: 10 μg/ml, 24 h, control 5.0%
Method: Mitochondrial membrane potential changes (ΔMMP) were assessed using the JC-1 MitoScreen Kit (BD Biosciences Systems, San Jose, CA, USA) as described previously. Sample of 10^6 cells/ml was suspended in a buffer mixture and incubated for 15 min at 37 °C with JC-1 dye provided by the kit manufacturer. Subsequently, the cells were washed and resuspended in a buffer. Samples prepared in this way were subjected to cytometric analysis using a cytometer BD FACSCanto II and FACSDiva software (both from BD Biosciences Systems, San Jose, CA, USA).

hCA II = biological target: T1, hCA II (Homo sapiens, UniProt P00918); test: Carbonic anhydrase inhibition, stopped flow CO2 hydration; assay type: biochemical
T1 construct: made in house
Method: Carbonic anhydrase catalysed CO2 hydration activity was measured using an Applied Photophysics stopped-flow spectrometer. […] The uncatalyzed rates were determined in the same manner and subtracted from the total observed rates. Stock solutions of inhibitor (0.1 mM) were prepared in distilled-deionized water and dilutions up to 0.01 nM were done thereafter with the assay buffer. […] The inhibition constants were obtained by non-linear least-squares methods using PRISM 3 and the Cheng–Prusoff equation and represent the mean from at least three different determinations. All CA isoforms were recombinant ones obtained in-house[21]^,[22].

[3] = system: human recombinant acetylcholinesterase (hrAChE); test: AChE inhibition, Ellman method; assay type: biochemical; conditions: 500 µM
Method: (§1) The inhibition ability of tested compounds against human recombinant acetylcholinesterase (hrAChE) and human recombinant butyrylcholinesterase (hrBChE) was determined by standard Ellman method adapted for 96-well plate. The reaction mixture contained 10 µL of hrAChE (70 ng/mL protein final concentration) or hrBChE (220 ng/mL protein final concentration), 10 µL of tested compound (1, 10, 100, and 500 µM final concentration), 20 µL of 5,5′-dithiobis-2-nitrobenzoic acid (DTNB; 500 µM final concentration), and 60 µL of 20 mM Na-phosphate buffer (pH 7.4). The mixture was pre-incubated at 37 °C for 15 min and subsequently 10 µL substrate acetylthiocholine iodide (ATChI) or butyrylthiochiline iodide (BTChI) was added to the final concentration of 1000 µM[24]. The final volume of reaction mixture was 100 µL. The product formed during the reaction (5-thio-2-nitrobenzoic acid, TNB) was determined by measurement of its absorbance at 436 nm. The catalytic activity was evaluated as amount of product (%) formed by enzyme after 10 min of mixture incubation at 37 °C.

[4] = system: human recombinant butyrylcholinesterase (hrBChE); test: BChE inhibition, Ellman method; assay type: biochemical; conditions: 500 µM
Method: as §1

[5] = 1 h incubation, read-out: KI hCA II (1h)
[6] = 6 h incubation, read-out: KI hCA II (6h)
[7] = incubation time not given, read-out: Ki CA II

Row | SMILES | IC50 ± SD, DPPH (DPPH assay) | IC50 ± SD, CUPRAC (CUPRAC assay) | Relative viability vs. untreated cells (U-87 MG cells [1]) | cells with low mitochondrial membrane potential (ΔΨm) (U-87 MG cells [2]) | Ki (hCA II; [5]) | Ki (hCA II; [6]) | decrease of hrAChE activity [3] | hrBChE activity [4] | Ki (hCA II; [7])
1 | Cc1ccc(-n2c(-c3cccc(Cl)c3)n[nH]c2=S)cc1 [TP-10, 5-(3-chlorophenyl)-4-(4-methylphenyl)-2,4-dihydro-3H-1,2,4-triazole-3-thione] | 31.72 ± 1.05 mg/L (≈ 105 µM) | 16.04 ± 0.61 mg/L (≈ 53.1 µM) | 99.16 ± 3.92% | 8.0% | 74.6 µM | > 100 µM | ~54% | 84% | –
2 | CCCCCCn1c(-c2cccc(Cl)c2)n[nH]c1=S [TP-315, 5-(3-chlorophenyl)-4-hexyl-2,4-dihydro-3H-1,2,4-triazole-3-thione] | 56.87 ± 0.70 mg/L (≈ 192 µM) | 22.28 ± 1.03 mg/L (≈ 75.3 µM) | 98.82 ± 2.84% | 9.9% | > 100 µM | > 100 µM | ~66% | 59% | > 100 µM
3 | CCCCCCn1c(Cc2cccc(Cl)c2)n[nH]c1=S [TP-427, 5-(3-chlorobenzyl)-4-hexyl-2,4-dihydro-3H-1,2,4-triazole-3-thione] | 110.51 ± 2.12 mg/L (≈ 357 µM) | 30.92 ± 1.11 mg/L (≈ 99.8 µM) | 98.53 ± 4.18% | 16.5% | > 100 µM | > 100 µM | ~61% | 78% | > 100 µM
